{
  "source": "patent US12077503B2",
  "about": "“Substituted cyclic amides and their use as herbicides” (FMC CORPORATION, priority 2015, dated 2024)",
  "assay_type_in_all_cases": "in vivo",
  "key": {"[1]": {"system": "waterhemp (common waterhemp, Amaranthus rudis)", "assay": "Test E preemergence", "conditions": "scale 0 to 100", "text": "(§1) Seeds of plant species selected from corn (Zea mays), soybean (Glycine max), velvetleaf (Abutilon theophrasti), lambsquarters (Chenopodium album), poinsettia, wild (wild poinsettia, Euphorbia heterophylla), pigweed, palmer (palmer pigweed, Amaranthus palmeri), waterhemp (common waterhemp, Amaranthus rudis), surinam grass (Brachiaria decumbens), crabgrass, large (large crabgrass, Digitaria sangumnalis), crabgrass, Brazil (Brazilian crabgrass, Digitaria horizontalis), Panicum, fall (fall Panicum, Panicum dichotomiflorum), foxtail, giant (giant foxtail, Setaria faberii), foxtail, green (green foxtail, Setaria viridis), goosegrass (Eleusine indica), johnsongrass (Sorghum halepense), ragweed (common ragweed, Ambrosia elatior), barnyardgrass (Echinochloa crus-galli), sandbur (southern sandbur, Cenchrus echinatus), arrowleaf Sida (Sida rhombifolia), ryegrass, Italian (Italian ryegrass, Lolium multiflorum), dayflower, VA (Virginia dayflower, Commelina virginica), field bindweed (Convolvulus arvensis), morningglory (Ipomoea coccinea), nightshade (eastern black nightshade, Solanum ptycanthum), Kochia (Kochia scoparia), nutsedge, yellow (yellow nutsedge, Cyperus esculentus), horseweed (Conyza canadensis), and beggarticks (hairy beggarticks, Bidens pilosa), were planted into a silt loam soil and treated preemergence with test chemicals formulated in a non-phytotoxic solvent mixture which included a surfactant.\n(§2) At the same time, plants selected from these crop and weed species were planted in pots containing Sunshine Redi-Earth planting medium comprising spaghnum peat moss, vermiculite, starter nutrients and dolomitic limestone and treated with postemergence applications of a test chemical formulated in the same manner. Plants ranged in height from 2 to 18 cm (1- to 4-leaf stage) for postemergence treatments. Treated plants and controls were maintained in a greenhouse for 14 to 21 d, after which time all species were compared to controls and visually evaluated. Plant response ratings, summarized in Table E, are based on a scale of 0 to 100 where 0 is no effect and 100 is complete control. A dash (-) response means no test result."}, "[2]": {"system": "Panicum, fall (fall Panicum, Panicum dichotomiflorum)", "assay": "Test E preemergence", "conditions": "scale 0 to 100", "text": "as §1, §2"}, "[3]": {"system": "foxtail, green (green foxtail, Setaria viridis)", "assay": "Test E preemergence", "conditions": "scale 0 to 100", "text": "as §1, §2"}, "Kochia (Kochia scoparia)": {"system": "Kochia (Kochia scoparia)", "assay": "Test E preemergence", "conditions": "scale 0 to 100", "text": "as §1, §2"}, "[4]": {"system": "dayflower, VA (Virginia dayflower, Commelina virginica)", "assay": "Test E preemergence", "conditions": "scale 0 to 100", "text": "as §1, §2"}, "[5]": {"system": "goosegrass (Eleusine indica)", "assay": "Test E preemergence", "conditions": "scale 0 to 100", "text": "as §1, §2"}, "[6]": {"system": "arrowleaf Sida (Sida rhombifolia)", "assay": "Test E preemergence", "conditions": "scale 0 to 100", "text": "as §1, §2"}, "[7]": {"system": "waterhemp (common waterhemp, Amaranthus rudis)", "assay": "Test C preemergence", "conditions": "for Plant response rating (scale of 0 to 100), Waterhemp: 0 is no effect, 100 is complete control", "in_short": "(§3)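 Scores of 0 to 100 reflect visual comparison with control plants, where 0 means no effect and 100 complete control, made 13 to 15 d after treatment. Application was preemergence to seeds in loam-sand soil or postemergence to plants 2 to 18 cm tall in peat-based mix, using a surfactant-containing solvent formulation.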"}, "[8]": {"system": "ragweed (common ragweed, Ambrosia elatior)", "assay": "Test C preemergence", "conditions": "for Plant response rating (scale of 0 to 100), Ragweed: 0 is no effect, 100 is complete control", "in_short": "as §3"}, "[9]": {"system": "wheat (winter wheat, Triticum aestivum)", "assay": "Test C preemergence", "conditions": "for Plant response rating (scale of 0 to 100), Wheat: 0 is no effect, 100 is complete control", "in_short": "as §3"}, "[10]": {"system": "lambsquarters (Chenopodium album)", "assay": "Test C preemergence", "conditions": "for Plant response rating (scale of 0 to 100), Lambsquarters: 0 is no effect, 100 is complete control", "in_short": "as §3"}, "[11]": {"system": "nutsedge, yellow (yellow nutsedge, Cyperus esculentus)", "assay": "Test C preemergence", "conditions": "for Plant response rating (scale of 0 to 100), Nutsedge, Yellow: 0 is no effect, 100 is complete control", "in_short": "as §3"}, "[12]": {"system": "crabgrass, large (large crabgrass, Digitaria sanguinalis)", "assay": "Test C preemergence", "conditions": "for Plant response rating (scale of 0 to 100), Crabgrass, Large: 0 is no effect, 100 is complete control", "in_short": "as §3"}, "[13]": {"system": "blackgrass (Alopecurus myosuroides)", "assay": "Test C preemergence", "conditions": "for Plant response rating (scale of 0 to 100), Blackgrass: 0 is no effect, 100 is complete control", "in_short": "as §3"}, "[14]": {"system": "oilseed rape (Brassica napus)", "assay": "Test C preemergence", "conditions": "for Plant response rating (scale of 0 to 100), Oilseed Rape: 0 is no effect, 100 is complete control", "in_short": "as §3"}, "[15]": {"conditions": "62 g ai/ha, scale 0 to 100, 0 no effect, 100 complete control"}},
  "data": [
    {"smiles": "CN1C[C@H](c2ccc(C(F)(F)F)cc2)[C@@H](C(=O)Nc2cccc(F)c2F)C1=O", "note": "[Compound 623, (3S,4S)—N-(2,3-difluorophenyl)-1-methyl-2-oxo-4-[4-(trifluoromethyl)phenyl]-3-pyrrolidinecarboxamide]", "values": [
      {"measurement": "Plant response rating: Waterhemp", "setting": "[1]; 31 g ai/ha", "value": 90},
      {"measurement": "Plant response rating: Waterhemp", "setting": "[1]; 62 g ai/ha", "value": 90},
      {"measurement": "Plant response rating: Waterhemp", "setting": "[1]; 125 g ai/ha", "value": 95},
      {"measurement": "Plant response rating: Waterhemp", "setting": "[1]; 250 g ai/ha", "value": 95},
      {"measurement": "Plant response rating: Panicum, Fall", "setting": "[2]; 31 g ai/ha", "value": 90},
      {"measurement": "Plant response rating: Panicum, Fall", "setting": "[2]; 62 g ai/ha", "value": 90},
      {"measurement": "Plant response rating: Panicum, Fall", "setting": "[2]; 125 g ai/ha", "value": 90},
      {"measurement": "Plant response rating: Panicum, Fall", "setting": "[2]; 250 g ai/ha", "value": 90},
      {"measurement": "Plant response rating: Foxtail, Green", "setting": "[3]; 31 g ai/ha", "value": 95},
      {"measurement": "Plant response rating: Foxtail, Green", "setting": "[3]; 62 g ai/ha", "value": 95},
      {"measurement": "Plant response rating: Foxtail, Green", "setting": "[3]; 125 g ai/ha", "value": 98},
      {"measurement": "Plant response rating: Foxtail, Green", "setting": "[3]; 250 g ai/ha", "value": 98},
      {"measurement": "Plant response rating: Kochia", "setting": "Kochia (Kochia scoparia); 31 g ai/ha", "value": 90},
      {"measurement": "Plant response rating: Kochia", "setting": "Kochia (Kochia scoparia); 62 g ai/ha", "value": 90},
      {"measurement": "Plant response rating: Kochia", "setting": "Kochia (Kochia scoparia); 125 g ai/ha", "value": 95},
      {"measurement": "Plant response rating: Kochia", "setting": "Kochia (Kochia scoparia); 250 g ai/ha", "value": 95},
      {"measurement": "Plant response rating: Dayflower, VA", "setting": "[4]; 31 g ai/ha", "value": 0},
      {"measurement": "Plant response rating: Dayflower, VA", "setting": "[4]; 62 g ai/ha", "value": 0},
      {"measurement": "Plant response rating: Dayflower, VA", "setting": "[4]; 125 g ai/ha", "value": 20},
      {"measurement": "Plant response rating: Dayflower, VA", "setting": "[4]; 250 g ai/ha", "value": 35},
      {"measurement": "Plant response rating: Goosegrass", "setting": "[5]; 31 g ai/ha", "value": 95},
      {"measurement": "Plant response rating: Goosegrass", "setting": "[5]; 62 g ai/ha", "value": 98},
      {"measurement": "Plant response rating: Goosegrass", "setting": "[5]; 125 g ai/ha", "value": 98},
      {"measurement": "Plant response rating: Goosegrass", "setting": "[5]; 250 g ai/ha", "value": 98},
      {"measurement": "Plant response rating: Arrowleaf Sida", "setting": "[6]; 31 g ai/ha", "value": 20},
      {"measurement": "Plant response rating: Arrowleaf Sida", "setting": "[6]; 62 g ai/ha", "value": 80},
      {"measurement": "Plant response rating: Arrowleaf Sida", "setting": "[6]; 125 g ai/ha", "value": 85},
      {"measurement": "Plant response rating: Arrowleaf Sida", "setting": "[6]; 250 g ai/ha", "value": 90},
      {"measurement": "Plant response rating (scale of 0 to 100), Waterhemp", "setting": "[7]; 8 g ai/ha", "value": 45},
      {"measurement": "Plant response rating (scale of 0 to 100), Waterhemp", "setting": "[7]; 16 g ai/ha", "value": 75},
      {"measurement": "Plant response rating (scale of 0 to 100), Waterhemp", "setting": "[7]; 31 g ai/ha", "value": 85},
      {"measurement": "Plant response rating, Waterhemp", "setting": "[7]; [15]", "value": 90},
      {"measurement": "Plant response rating (scale of 0 to 100), Ragweed", "setting": "[8]; 8 g ai/ha", "value": 0},
      {"measurement": "Plant response rating (scale of 0 to 100), Ragweed", "setting": "[8]; 16 g ai/ha", "value": 20},
      {"measurement": "Plant response rating (scale of 0 to 100), Ragweed", "setting": "[8]; 31 g ai/ha", "value": 45},
      {"measurement": "Plant response rating, Ragweed", "setting": "[8]; [15]", "value": 75},
      {"measurement": "Plant response rating (scale of 0 to 100), Wheat", "setting": "[9]; 8 g ai/ha", "value": 20},
      {"measurement": "Plant response rating (scale of 0 to 100), Wheat", "setting": "[9]; 16 g ai/ha", "value": 0},
      {"measurement": "Plant response rating (scale of 0 to 100), Wheat", "setting": "[9]; 31 g ai/ha", "value": 40},
      {"measurement": "Plant response rating, Wheat", "setting": "[9]; [15]", "value": 35},
      {"measurement": "Plant response rating (scale of 0 to 100), Lambsquarters", "setting": "[10]; 8 g ai/ha", "value": 10},
      {"measurement": "Plant response rating (scale of 0 to 100), Lambsquarters", "setting": "[10]; 16 g ai/ha", "value": 30},
      {"measurement": "Plant response rating (scale of 0 to 100), Lambsquarters", "setting": "[10]; 31 g ai/ha", "value": 60},
      {"measurement": "Plant response rating, Lambsquarters", "setting": "[10]; [15]", "value": 50},
      {"measurement": "Plant response rating (scale of 0 to 100), Nutsedge, Yellow", "setting": "[11]; 8 g ai/ha", "value": 0},
      {"measurement": "Plant response rating (scale of 0 to 100), Nutsedge, Yellow", "setting": "[11]; 16 g ai/ha", "value": 0},
      {"measurement": "Plant response rating (scale of 0 to 100), Nutsedge, Yellow", "setting": "[11]; 31 g ai/ha", "value": 0},
      {"measurement": "Plant response rating, Nutsedge, Yellow", "setting": "[11]; [15]", "value": 0},
      {"measurement": "Plant response rating (scale of 0 to 100), Crabgrass, Large", "setting": "[12]; 8 g ai/ha", "value": 90},
      {"measurement": "Plant response rating (scale of 0 to 100), Crabgrass, Large", "setting": "[12]; 16 g ai/ha", "value": 90},
      {"measurement": "Plant response rating (scale of 0 to 100), Crabgrass, Large", "setting": "[12]; 31 g ai/ha", "value": 95},
      {"measurement": "Plant response rating, Crabgrass, Large", "setting": "[12]; [15]", "value": 95},
      {"measurement": "Plant response rating (scale of 0 to 100), Blackgrass", "setting": "[13]; 8 g ai/ha", "value": 0},
      {"measurement": "Plant response rating (scale of 0 to 100), Blackgrass", "setting": "[13]; 16 g ai/ha", "value": 40},
      {"measurement": "Plant response rating (scale of 0 to 100), Blackgrass", "setting": "[13]; 31 g ai/ha", "value": 60},
      {"measurement": "Plant response rating, Blackgrass", "setting": "[13]; [15]", "value": 90},
      {"measurement": "Plant response rating (scale of 0 to 100), Oilseed Rape", "setting": "[14]; 8 g ai/ha", "value": 80},
      {"measurement": "Plant response rating (scale of 0 to 100), Oilseed Rape", "setting": "[14]; 16 g ai/ha", "value": 0},
      {"measurement": "Plant response rating (scale of 0 to 100), Oilseed Rape", "setting": "[14]; 31 g ai/ha", "value": 30},
      {"measurement": "Plant response rating, Oilseed Rape", "setting": "[14]; [15]", "value": 85}
    ]}
  ]
}
